Measurements from US12692509B2, “Methods for generating new genes in organism and use thereof” (Qingdao Kingagroot Chemical Compound Co., Ltd., priority 2019, dated 2026).

Key:
wild-type Jinjing 818 [1] = assay: Herbicide resistance test at seedling stage, germination on 1/2 MS medium with herbicide: wild-type control; type: in vivo, rice; details: 1.2 μM in 1/2 MS medium, 10 days of cultivation in light
Protocol: (§1) The herbicide resistance of the T1 generation of the QY2091 HPPD doubled strain was tested at the seedling stage. After the T1 generation seeds were subjected to surface disinfection, they germinated on ½ MS medium containing 1.2 μM Shuangzuocaotong, and cultivated at 28° C., 16 hours light/8 hours dark, in which wild-type Jinjing 818 was used as a control.

[2] = test system: QY2091 T0 generation HPPD gene doubling strain; assay: Herbicide resistance test, T0 generation, spray application: HPPD doubling strains; type: in vivo, rice; details: for phenotype of HPPD doubling event strains after application: 2, 4, 8 and 32 g a.i./mu
Protocol: (§2) The transformation seedlings of T0 generation identified as doubling event positive were transplanted into large plastic buckets in the greenhouse for expanding propagation to obtain seeds of T1 generation. After the seedlings began to tiller, the tillers were taken from vigorously growing strains, and planted in the same pots with the tillers of the wild-type control varieties at the same growth period. After the plant height reached about 20 cm, the herbicide resistance test was conducted. The herbicide used was Shuangzuocaotong (CAS No. 1622908-18-2) produced by our company, and its field dosage was usually 4 grams of active ingredients per mu (4 g a.i./mu). In this experiment, Shuangzuocaotong was applied at a dosage gradient of 2 g a.i./mu, 4 g a.i./mu, 8 g a.i./mu and 32 g a.i./muwith a walk-in spray tower.

[3] = test system: T1 generation of the QY2091 HPPD doubled strain; assay: Herbicide resistance test at seedling stage, germination on 1/2 MS medium with herbicide: T1 of HPPD doubled strain; type: in vivo, rice; details: 1.2 μM in 1/2 MS medium, 10 days; lines QY2091-7, 13, 20, 22
Protocol: as §1

wild-type Jinjing 818 [4] = assay: Herbicide resistance test, T0 generation, spray application: wild-type control; type: in vivo, rice; details: 2, 4, 8 and 32 g a.i./mu
Protocol: as §2

wild-type Huaidao No. 5 [5] = assay: Herbicide resistance test of T1 generation seedlings, spraying: wild-type control; type: in vivo, rice; details: 5 days after application
Protocol: (§3) The herbicide resistance test was performed on the T1 generation of the QY2234/H5-851 PPO1 inversion lines at seedling stage. The wild-type Huaidao No. 5 was used as a control, and planted simultaneously with the T1 generation seeds of the inversion lines. When the seedlings reached a plant height of 15 cm, 2081 was applied by spraying at four levels of 0.3, 0.6, 0.9 and 1.2 g a.i./mu. The culture conditions were 28° C., with 16 hours of light and 8 hours of darkness.

[6] = test system: QY2234 T0 generation PPO1 inversion strain; assay: PPO inhibitory herbicide resistance test, T0 generation, spray application: PPO1 inversion lines; type: in vivo, rice
Excerpt: (§4) Transformation seedlings of QY2234 T0 generation identified as inversion event-positive were transplanted into large plastic buckets in the greenhouse to grow seeds of T1 generation. There were a large number of positive seedlings, so some T0 seedlings and wild-type control lines with similar growth period and status were selected. When the plant height reached about 20 cm, the herbicide resistance test was directly carried out. The herbicide used was a high-efficiency PPO inhibitory herbicide [drawing 1] produced by the company (code 2081, see […] Patent Application for Invention No. 202010281666.4). In this experiment, the herbicide was applied at the gradients of three levels, namely 0.18, 0.4, and 0.6 g ai/mu, by a walk-in type spray tower.

[7] = test system: QY2234/H5-851 T1 seedlings; assay: Herbicide resistance test of T1 generation seedlings, spraying: PPO1 inversion line; type: in vivo, rice; details: 5 days after application
Protocol: as §3

wild-type Huaidao No. 5 [8] = assay: PPO inhibitory herbicide resistance test, T0 generation, spray application: wild-type control; type: in vivo, rice; details: 0.18, 0.4 and 0.6 g ai/mu
Excerpt: as §4

[9] = test system: Plants containing the new EPSPS gene; assay: Herbicide bioassay on plants containing the new EPSPS gene; type: in vivo; details: rice plants from Agrobacterium-transformed calli
Excerpt: These vectors were transferred into Agrobacterium for transforming calli of rice. Plants containing the new EPSPS gene were obtained.

[10] = T0 generation, versus wild type

Cc1nn(C)cc1C(=O)Oc1c(C(=O)c2ccc(C(F)(F)F)cc2S(C)(=O)=O)c(C)nn1C [Shuangzuocaotong]
phenotype of wild-type control rice seedlings (wild-type Jinjing 818 [1]): almost all albino
phenotype of HPPD doubling event strains after application ([2]; 4 weeks after application): all continued to remain green and grew normally
phenotype of HPPD doubling event strains after application ([2]; 5-7 days after application): all remained normally green
tolerance of HPPD gene-doubled strains to the herbicide [2, 10]: significantly improved tolerance
resistance of plants to the HPPD inhibitory herbicide ([2]; T0 transformed seedlings, field dosage 4 g a.i./mu): up to 8 times the field dose
phenotype of green T1 seedlings of HPPD doubling lines [3]: continued to remain green and grew normally
phenotype of wild-type rice seedlings after application (wild-type Jinjing 818 [4]; 4 weeks after application): close to death
phenotype of wild-type control rice seedlings after application (wild-type Jinjing 818 [4]; 5-7 days after application, spray tower): began to show albino

COC(=O)[C@@H](C)O/N=C/c1cc(-n2c(=O)cc(C(F)(F)F)n(C)c2=O)c(F)cc1Cl [compound 2081]
phytotoxicity on wild-type control rice seedlings (wild-type Huaidao No. 5 [5]; 0.3 g a.i./mu): obvious phytotoxicity
phytotoxicity on wild-type control (wild-type Huaidao No. 5 [5]; 0.6 and 0.9 g ai/mu): substantially died off
phytotoxicity on wild-type control rice seedlings (wild-type Huaidao No. 5 [5]; 0.6 g a.i./mu): the plants died quickly
phytotoxicity on wild-type control plants (wild-type Huaidao No. 5 [5]; 1.2 g a.i./mu): all dead
phenotype of most lines of the PPO1 inversion event after application ([6]; 3-5 days after application, 0.18, 0.4 and 0.6 g ai/mu): maintained normal growth, the leaves had no obvious phytotoxicity
tolerance of PPO1 inversion lines to the herbicide [6, 10]: significantly improve the tolerance
phenotype of most inversion event strains after application ([6]; two weeks after application, 0.18, 0.4 and 0.6 g ai/mu): continued to remain green and grew normally
phytotoxicity on QY2234/H5-851 T1 seedlings ([7]; 0.3 g a.i./mu): maintain normal growth
phytotoxicity on QY2234/H5-851 T1 seedlings ([7]; 0.6 and 0.9 g ai/mu): most T1 seedlings could keep green and continue to grow
phytotoxicity on QY2234/H5-851 T1 seedlings ([7]; 1.2 g a.i./mu): some of the T1 seedlings could keep green and continue to grow
phenotype of wild-type control rice seedlings after application (wild-type Huaidao No. 5 [8]; 3-5 days after application): began to wither from tip of leaf, necrotic spots appeared on the leaves, and the plants gradually withered
phenotype of wild-type rice seedlings after application (wild-type Huaidao No. 5 [8]; two weeks after application): died

O=C(O)CNCP(=O)(O)O [glyphosate]
resistance of plants containing the new EPSPS gene to the herbicide [9]: obvious resistance
